Measured values published in patent publication US20260265538A1, “Aqueous Industrial Product Stabilized Against Microbial Contamination” (Thor GmbH, priority 2023, published 2026).
Counter-ions that a name gives are not always drawn.

Tested on: Bacteria mixture 1 (Pseudomonas genus)
Test: Repetitive stress test of paints with bacteria mixture 1, semiquantitative evaluation (examples 2 and 3)
Format: cell-based
Excerpt: Paints 1 to 3 were mixed and homogenized with various concentrations of the guanidinium salts to be tested.
The batches obtained of the paint thus prepared were inoculated repeatedly with a mixture of different wild-type bacterial strains that are of practical relevance with regard to contamination. These bacteria had previously been isolated from commercial emulsion paints containing conventional preservatives (bacteria mixture 1, Pseudomonas genus), which are microbially contaminated in practice, and commercial so-called preservative-free alkaline emulsion paints (bacteria mixture 2, alkaliphilic bacteria of the Nesterenkonia & Alkalibacterium genus), which are microbially contaminated in practice.
• Pseudomonas spp. (Pseudomonas oleovorans group) DSM 33933 • Pseudomonas aeruginosa DSM 33935 • Pseudomonas oleovorans DSM 33936 • Pseudomonas putida DSM 33937 • Pseudomonas aeruginosa DSM 33938
The inoculum was added to the respective sample in each inoculation at 2% (v/w) as a fresh cell suspension in a physiological saline solution (0.9% NaCl). The cell count of the added inoculum in example 1 was 10^5/ml, in examples 2 to 5 10^9/ml, and in example 6 10^6/ml, each in equal portions consisting of the individual bacterial strains. The cell suspension was produced by growing the individual bacteria at 30° C. for 24 h in liquid culture on a shaker. The medium used to grow the bacteria from bacteria mixture 1 was Müller-Hinton liquid medium. Bacteria from bacteria mixture 2 were grown in Müller-Hinton liquid medium that had been adjusted to pH 9.5-9.7 with an alkaline buffer solution beforehand. After growing, the individual liquid cultures were centrifuged, and the cells were resuspended in physiological saline solution. In order to adjust the mixture to the desired cell count, the individual bacteria suspensions, if necessary, were diluted accordingly before being combined with saline solution. The cell count of the inoculum was determined in each case by chamber counting.
In examples 2 to 6, what is called a repetitive stress test with bacteria was conducted by inoculating the samples at particular time intervals repeatedly with a bacteria suspension having a cell count of 10^9/ml (2% v/w) and monitoring the evolution of the bacteria by a semiquantitative evaluation method. After each inoculation, the samples were incubated at 30° C. for 6 days (bacteria mixture 1 and 3) or 7 and 14 days (bacteria mixture 2), and after these periods bacterial infestation was evaluated semiquantitatively in each case. For this purpose, an aliquot was taken from each sample after homogenization using a sterile plastic inoculation loop (10 μl) and streaked evenly on agar plates (bacteria mixture 1 and 3 on tryptic soy agar, bacteria mixture 2 on DSMZ 31 alkaline nutrient agar). The streaked agar plates were then incubated at 30° C. for 48 h (bacteria mixture 1 and 3) or 5 to 7 days (bacteria mixture 2). After incubation, the bacterial colonies grown on the agar plates were visually evaluated and quantified according to the following scheme:
A total of 3 inoculation cycles was performed in each repetitive stress test.
Inoculation 2% (w/v) with Bacteria Mixture 1, 10^9 CFU/ml
2% (w/v) Inoculation with Bacteria Mixture 1, […]

Measured: Stabilization of the paint against microbial infestation

N=C(N)N [guanidine hydrochloride]
distinct stabilization: table 2, addition of 0.25% by weight to paint 1 having a pH of pH 8.5 | table 2, addition of 0.25% by weight to paint 2 having a pH of 9.0 | table 3, paint 1, pH of 7.5, addition of 0.8% by weight | table 3, paint 2, pH of pH 7.6, addition of 0.8% by weight
